Earlier results, collected in US12576020B2, “Increasing the stability of agents for the treatment of keratinous material” (Henkel AG & Co. KGaA, priority 2019, dated 2026).

Details: 25° C.

O=C([O-])c1c(Cl)c(Cl)c(Cl)c(Cl)c1-c1c2c(Br)cc(=O)c(Br)c-2oc2c(Br)c(O)cc(Br)c12.O=C([O-])c1c(Cl)c(Cl)c(Cl)c(Cl)c1-c1c2c(Br)cc(=O)c(Br)c-2oc2c(Br)c(O)cc(Br)c12.[Na+].[Na+] [Acid Red 92, disodium salt of 3,4,5,6-tetrachloro-2-(1,4,5,8-tetrabromo-6-hydroxy-3-oxoxanthen-9-yl)benzoic acid]
solubility in water: greater than 10 g/L

O=C([O-])C1=NN(c2ccc(S(=O)(=O)[O-])cc2)C(=O)C1N=Nc1ccc(S(=O)(=O)[O-])cc1.[Na+].[Na+].[Na+] (stereo not shown) [Acid Yellow 23, tisodium salt of 4,5-dihydro-5-oxo-1-(4-sulfophenyl)-4-((4-sulfophenyl)azo)-1H-pyrazole-3-carboxylic acid]
solubility in water (in words): highly soluble

O=S(=O)([O-])c1ccc(N=Nc2c(O)ccc3ccccc23)cc1.[Na+] [Acid Orange 7, sodium salt of 4-[(2-hydroxy-1-naphthyl)azo]benzene sulphonate]
solubility in water: more than 7 g/L

Nc1cc(S(=O)(=O)[O-])cc2cc(S(=O)(=O)[O-])c(N=Nc3ccccc3)c(O)c12.[Na+].[Na+] [Acid Red 33, disodium salt of 5-amino-4-hydroxy-3-(phenylazo)-naphthalene-2,7-disulphonate]
solubility in water: 2.5 mg/mL
